Several values for one entry are separate records, joined by “and”; a condition that tells them apart may be missing. Identical values can stand only once. Activity calls are given as the source filed them.

Assay [1] concerns the target Luciferin 4-monooxygenase (Photinus pyralis, UniProt P08659). The experiment in a line: firefly luciferase enzyme inhibitors, dose response, biochemical, luminescence (AID 1891).
Assay [2] can be described thus: Luminescence Cell-Based Dose Confirmation HTS to Identify Inhibitors of Platelet Dense Granule Release. [Related pubchem assays: 1663 (Primary HTS), 1678 (Summary of Project)]. It counts as functional.
A further assay relates to H9c2. As to the kind of experiment: cells. In kind it is functional, cell-based. As to conditions: Rattus norvegicus, H9c2, Myocardium.
The target of assay [3] is FAD-linked sulfhydryl oxidase ALR (Homo sapiens, UniProt P55789). The experiment in a line: inhibitors of human ALR sulfhydryl oxidase, dose response, biochemical, H2O2 detection, luminescence, cherry-pick (AID 493248).
FAD-linked sulfhydryl oxidase ALR, sequence (P55789 whole entry): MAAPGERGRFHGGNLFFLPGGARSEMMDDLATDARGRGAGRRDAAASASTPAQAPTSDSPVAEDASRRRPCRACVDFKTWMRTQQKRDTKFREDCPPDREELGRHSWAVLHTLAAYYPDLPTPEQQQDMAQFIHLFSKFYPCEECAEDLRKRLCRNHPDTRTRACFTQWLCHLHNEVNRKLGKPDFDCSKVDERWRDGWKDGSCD
The target in another assay is Cytochrome P450 2D6 (Homo sapiens, UniProt P10635).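 Also: CYP2D6 member of a cytochrome P450 panel assay.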
Cytochrome P450 2D6, sequence (P10635 whole entry): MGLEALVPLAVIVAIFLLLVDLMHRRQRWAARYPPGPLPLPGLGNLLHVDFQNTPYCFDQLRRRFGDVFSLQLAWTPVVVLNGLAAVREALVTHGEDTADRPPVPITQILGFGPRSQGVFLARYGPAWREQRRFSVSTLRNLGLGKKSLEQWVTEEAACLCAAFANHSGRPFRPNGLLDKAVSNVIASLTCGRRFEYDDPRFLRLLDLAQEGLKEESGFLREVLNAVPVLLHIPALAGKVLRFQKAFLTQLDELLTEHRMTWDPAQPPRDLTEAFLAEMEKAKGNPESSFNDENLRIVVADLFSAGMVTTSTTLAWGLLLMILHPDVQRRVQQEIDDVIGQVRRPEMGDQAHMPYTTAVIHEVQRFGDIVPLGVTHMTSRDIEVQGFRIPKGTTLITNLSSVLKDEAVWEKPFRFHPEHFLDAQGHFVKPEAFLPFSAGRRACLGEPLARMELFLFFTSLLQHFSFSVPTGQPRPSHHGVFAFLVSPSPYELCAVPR
In assay [4] the target is T1, Rac GTPase-activating protein 1 (Homo sapiens, UniProt Q9H0H5).
T1 sequence (Q9H0H5 whole entry): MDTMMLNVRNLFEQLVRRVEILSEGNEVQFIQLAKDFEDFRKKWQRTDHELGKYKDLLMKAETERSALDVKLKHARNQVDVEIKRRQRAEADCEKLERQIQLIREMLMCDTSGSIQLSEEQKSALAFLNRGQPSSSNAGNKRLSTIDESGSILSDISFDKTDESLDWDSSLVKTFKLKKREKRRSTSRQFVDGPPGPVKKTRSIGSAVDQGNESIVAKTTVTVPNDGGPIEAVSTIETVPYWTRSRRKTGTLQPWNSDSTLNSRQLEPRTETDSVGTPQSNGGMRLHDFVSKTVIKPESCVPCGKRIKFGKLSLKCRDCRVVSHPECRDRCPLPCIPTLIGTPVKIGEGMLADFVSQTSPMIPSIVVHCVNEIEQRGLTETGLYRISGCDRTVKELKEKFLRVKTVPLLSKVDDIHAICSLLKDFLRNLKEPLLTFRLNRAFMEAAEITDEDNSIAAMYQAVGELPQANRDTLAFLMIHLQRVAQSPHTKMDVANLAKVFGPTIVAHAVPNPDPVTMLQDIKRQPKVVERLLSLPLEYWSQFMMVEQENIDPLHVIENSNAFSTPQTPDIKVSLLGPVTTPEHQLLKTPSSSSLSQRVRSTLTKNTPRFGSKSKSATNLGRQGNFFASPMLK
The experiment in a line: MgcRacGAP GTPase-activating activity inhibitors, confirmation, biochemical, ADP Hunter fluorescence, primary and confirmatory (AID 624330). In kind it is functional.

The target in a further assay is Cytochrome P450 2C19 (Homo sapiens, UniProt P33261). The experiment in a line: Cytochrome panel assay with activity outcomes. Panel member name: p450-cyp2c19 Compounds with AC50 equal or less than 10 uM are considered active. In kind it is functional. The note with it: read-out: AC50.
Cytochrome P450 2C19, sequence (P33261 whole entry): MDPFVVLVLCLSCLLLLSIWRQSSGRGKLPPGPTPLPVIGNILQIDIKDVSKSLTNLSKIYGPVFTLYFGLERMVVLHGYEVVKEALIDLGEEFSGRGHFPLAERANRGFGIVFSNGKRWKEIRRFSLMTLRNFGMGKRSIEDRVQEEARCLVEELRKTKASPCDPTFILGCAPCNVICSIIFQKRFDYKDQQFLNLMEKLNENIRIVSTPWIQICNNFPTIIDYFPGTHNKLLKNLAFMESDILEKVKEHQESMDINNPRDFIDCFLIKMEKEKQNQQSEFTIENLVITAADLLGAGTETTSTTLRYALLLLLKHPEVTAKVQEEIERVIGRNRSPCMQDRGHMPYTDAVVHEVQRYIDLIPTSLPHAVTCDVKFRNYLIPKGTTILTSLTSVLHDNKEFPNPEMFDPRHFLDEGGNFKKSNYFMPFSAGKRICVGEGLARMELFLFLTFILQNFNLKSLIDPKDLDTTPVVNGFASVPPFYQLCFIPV
A further assay has as its target T2, Cytochrome P450 1A2 (Homo sapiens, UniProt P05177).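 Also: PubChem cytochrome P450 panel assay, CYP1A2 panel member.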
T2 sequence (P05177 whole entry): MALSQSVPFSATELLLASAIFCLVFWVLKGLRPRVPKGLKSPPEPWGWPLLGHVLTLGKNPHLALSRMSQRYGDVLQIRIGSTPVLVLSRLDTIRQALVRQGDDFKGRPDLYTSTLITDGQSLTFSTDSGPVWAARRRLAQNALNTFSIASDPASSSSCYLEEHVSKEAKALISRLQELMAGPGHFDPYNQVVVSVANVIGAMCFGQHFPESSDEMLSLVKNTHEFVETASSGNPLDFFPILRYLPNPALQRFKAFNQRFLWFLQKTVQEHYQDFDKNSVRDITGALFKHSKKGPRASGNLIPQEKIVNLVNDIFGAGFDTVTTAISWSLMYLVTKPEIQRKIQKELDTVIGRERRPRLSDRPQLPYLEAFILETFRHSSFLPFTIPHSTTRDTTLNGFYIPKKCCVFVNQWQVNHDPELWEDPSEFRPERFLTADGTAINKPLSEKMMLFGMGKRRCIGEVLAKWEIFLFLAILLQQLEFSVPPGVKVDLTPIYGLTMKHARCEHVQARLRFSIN

Assay [5] is described as follows: inhibitors of intracellular T. cruzi replication, confirmation, NIH3T3 host cells, beta-gal luminescence (AID 2044).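 Also: intracellular parasites grown in NIH/3T3 mouse fibroblasts as host cells; luminescent beta-galactosidase reporter signal from transgenic T. cruzi replicating inside host cells; inhibitors lower the luminescence signal.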 In kind it is functional, cell-based.
Assay [6] is described as follows: cytotoxicity toward NIH3T3 fibroblasts, dose response, counter-screen, cell-based, ATP luminescence, mouse fibroblasts (AID 2010).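 Also: cells exposed to compound for about 90 hours before reading.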 It counts as functional. A general note: A counterscreen serves to expose hits that act by an unwanted route or on another target.
Assay [7] in a line: NIH-3T3 fibroblast cytotoxicity, dose response, cytotoxicity control, cell-based, fluorescence, Alamar Blue, secondary assay (AID 2327).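 Also: NIH-3T3 mouse fibroblasts cultured with fluconazole at 8 µg/mL.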 It counts as functional. (Resazurin is reduced to fluorescent resorufin, in cell work by metabolically active cells.)
Assay [8] in a line: C. albicans growth with fluconazole, confirmation, fluorescence, retest (AID 2467). In kind it is functional, cell-based.
The target in another assay is Cytochrome P450 3A4 (Homo sapiens, UniProt P08684).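 Also: CYP3A4 tested as one member of a cytochrome P450 panel screen.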
Cytochrome P450 3A4, sequence (P08684 whole entry): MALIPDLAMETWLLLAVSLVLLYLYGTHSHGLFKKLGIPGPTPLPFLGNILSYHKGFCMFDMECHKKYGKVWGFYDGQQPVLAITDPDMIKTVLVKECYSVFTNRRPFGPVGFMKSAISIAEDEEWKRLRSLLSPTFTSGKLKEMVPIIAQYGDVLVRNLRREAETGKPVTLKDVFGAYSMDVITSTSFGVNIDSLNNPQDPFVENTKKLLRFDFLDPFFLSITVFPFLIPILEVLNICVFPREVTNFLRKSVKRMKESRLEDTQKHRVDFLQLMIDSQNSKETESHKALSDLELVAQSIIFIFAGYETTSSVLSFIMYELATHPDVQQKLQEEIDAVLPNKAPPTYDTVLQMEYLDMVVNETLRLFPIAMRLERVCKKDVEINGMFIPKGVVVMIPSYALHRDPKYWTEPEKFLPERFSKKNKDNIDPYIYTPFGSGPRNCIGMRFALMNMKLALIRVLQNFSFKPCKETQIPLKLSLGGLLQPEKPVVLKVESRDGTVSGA

Luciferin 4-monooxygenase, sequence (P08659 whole entry): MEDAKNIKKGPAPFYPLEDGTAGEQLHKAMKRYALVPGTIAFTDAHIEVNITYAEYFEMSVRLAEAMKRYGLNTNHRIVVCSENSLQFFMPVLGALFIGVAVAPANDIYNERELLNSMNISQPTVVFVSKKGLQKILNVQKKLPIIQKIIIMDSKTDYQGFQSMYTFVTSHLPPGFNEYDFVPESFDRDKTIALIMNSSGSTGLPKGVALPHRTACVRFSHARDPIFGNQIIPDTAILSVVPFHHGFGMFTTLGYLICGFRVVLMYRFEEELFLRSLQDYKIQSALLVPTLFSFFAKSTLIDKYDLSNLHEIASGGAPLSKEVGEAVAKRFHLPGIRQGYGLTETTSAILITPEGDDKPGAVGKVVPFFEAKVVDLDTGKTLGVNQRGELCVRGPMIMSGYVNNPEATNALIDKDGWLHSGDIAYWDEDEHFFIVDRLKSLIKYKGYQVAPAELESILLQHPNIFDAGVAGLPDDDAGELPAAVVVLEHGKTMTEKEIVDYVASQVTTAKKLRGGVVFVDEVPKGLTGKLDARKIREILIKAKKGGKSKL

On to `CCOc1c(OC(C)=O)ccc(/C=C/c2ccc3cccc(OC)c3n2)c1[N+](=O)[O-]`, for which the EC50 (in general, the concentration at which the effect is half-maximal) in [1] was > 112 µM (not active); in assay [2] it was 17.6 µM (active).

For the molecule `COc1ccc(C(=O)COC(=O)Cn2[nH]c(=O)c3ccccc3c2=O)c(OC)c1`, the IC50 (usually the midpoint of a concentration-inhibition curve) with H9c2 was 17.5 µM (active). In the case of `O=[N+]([O-])c1c(O)nc(/C=C\c2cccc(F)c2)nc1O`, in assay [3], the AC50 (in general, the concentration at which the activity in the assay is half-maximal) was 1.76 µM (active). As to `COc1cccc(Nc2nc3ccccc3n3cnnc23)c1`, the IC50 in the assay with H9c2 is > 79 µM (inactive).

For `COCC(=O)N1CCC2(CC1)CN(C(=O)Nc1ccccc1)C2`, the AC50 on Cytochrome P450 2D6 is 39.8 µM (inconclusive).

Take `Cc1onc(-c2ccccc2Cl)c1C(=O)N1CCc2ccccc2C1`: the EC50 in [1] and in [2] was > 112 µM (not active) in each case.

For `CCOC(=O)c1sc(=S)n(CC)c1NC(=O)C1CC1`, the EC50 in [1] and in assay [2] was > 112 µM (not active) throughout. `COc1cc(-n2c(S)nnc2-c2ccccc2)c(OC)cc1Cl`: in assay [3], the AC50 was 12.3 µM (active).

Take `O=C1CSC(c2ccccn2)N1c1cccc(Cl)c1` (configuration not stated): the AC50 in assay [3] is 0.394 µM (active). As for `CCN1CCCC1CNC(=O)CS(=O)(=O)Cc1nc(-c2ccccc2C)oc1C` (configuration not stated), the EC50 in assay [1] was > 112 µM (not active); in [2] it was 64.8 µM (active). With `O=C(OCc1cc(=O)n2ccsc2n1)c1ccc(O)cc1O`, the IC50 in the assay with H9c2 was > 79 µM (inactive).

As for `CC(=O)N1N=C(c2ccncc2)OC12CCCC2`, the EC50 in assay [1] and in assay [2] was > 112 µM (not active) each time.

In the case of `CCOc1cc(/C=C/c2cccc[n+]2C)ccc1O`, the IC50 in assay [4] is 22.9 µM (active).

`COC(=O)[C@@]1(Cc2ccc(OC)cc2)[C@H]2c3cc(C(=O)N(C)C)n(Cc4c(CO)ncc(C)c4O)c3C[C@H]2CN1C(=O)c1ccccc1`: the AC50 on Cytochrome P450 2C19 is 31.6 µM (inconclusive); on Cytochrome P450 2D6, 20 µM (inconclusive). With `CN(C)c1ncc2ncc(=O)n(Cc3ccc(F)cc3)c2n1`, the AC50 on Cytochrome P450 2D6 is 12.6 µM (inconclusive). Consider `C=CCn1c(SCc2cccc(F)c2)nc2cc(C(=O)N3CCC(C(N)=O)CC3)ccc2c1=O`, for which the AC50 in assay [3] is 2.27 µM (active). The same measure, in the same setting: for `Nc1cccc(-c2cn3cccnc3n2)c1` the value was 0.232 µM (active).

As for `Clc1ccc(/C=C/c2ncc3ccccn23)cc1`, the AC50 in assay [3] is 8.17 µM (active). In the case of `COc1ccccc1CNc1cc(-c2ccc(C(=O)N(C)C)cc2)ncn1`, the AC50 on Cytochrome P450 2D6 is 12.6 µM (inconclusive). Take `O=C(O)c1cccc(S(=O)(=O)Nc2ccc(O)c(Sc3nc4ccccc4s3)c2)c1`: the AC50 in assay [3] is 0.176 µM (active). `c1ccc2nc(N3CCCC3)c(N3CCCC3)nc2c1`: in assay [3], the concentration at half-maximal activity (AC50) is 0.034 µM (active). For `COc1cccc(Cn2c(=O)c(-c3ccc(F)cc3)nc3cnc(N4CCNCC4)nc32)c1`, the AC50 at Cytochrome P450 1A2 is 25.1 µM (inconclusive); on Cytochrome P450 2C19, 39.8 µM (inconclusive); at Cytochrome P450 2D6, 25.1 µM (inconclusive).

Take `CCN(CC(=O)Nc1ccc(S(=O)(=O)N2CCCC2)cc1)CC(=O)Nc1cccc(OC)c1`: the IC50 in assay [4] is 35.5 µM (active). Take `COc1ccc(C(=O)Nc2ccc3[nH]ccc3c2)cc1OC`: the EC50 in assay [1] and in [2] was > 112 µM (not active) throughout. Turning to `CC1CCCC(C)N1C(=O)COC(=O)c1nnc(O)c2ccccc12` (configuration not stated), the IC50 in the assay on H9c2 was > 79 µM (inactive). Same read-out and setting: as for `O=C(N/N=C/c1cn(-c2ccccc2)nc1-c1cccnc1)c1ccccc1`, the figure is > 79 µM (inactive). Turning to `CCc1ccc(-c2cc(C)no2)cc1S(=O)(=O)NCCN1CCC(C)CC1`, the EC50 in assay [1] and in [2] was > 112 µM (not active) each time. Consider `COc1ccc(N2CCN(C(=O)CCCn3nnnc3CN3CCOCC3)C(C)C2)cc1` (configuration not stated), for which the IC50 in assay [4] is 150 µM (active). With `CCOc1cc(NC(=O)c2ccccc2C(=O)O)c(OCC)cc1NC(=O)c1ccccc1F`, in [4], the IC50 is 54.8 µM (active). The EC50 was 5.83 µM (active) in assay [5] and > 60 µM (not active) in assay [6]. As for `Sc1nncn1/N=C/c1ccccn1`, in [3], the AC50 was 3.06 µM (active).

Turning to `Oc1c(C(c2cccs2)N2CCOCC2)sc2ncnn12` (configuration not stated), the EC50 in assay [1] and in [2] was > 112 µM (not active) each time. With `Cc1csc(SCC(=O)Nc2nc(-c3ccccc3)cs2)n1`, the concentration for a half-maximal effect (EC50) in assay [1] and in assay [2] was > 112 µM (not active) each time.

Turning to `COc1ccccc1-n1c(=O)c2c3c(sc2n2c(S)nnc12)CCC3`, the IC50 in [4] was 50.3 µM (active). Take `C[N+](C)(C)CC[N+]1(C)Cc2c(Cl)c(Cl)c(Cl)c(Cl)c2C1` [CHLORISONDAMINE]: the AC50 is 5.01 µM (inconclusive) at Cytochrome P450 2C19 and 15.8 µM (inconclusive) at Cytochrome P450 2D6. Turning to `Cc1c(C(=O)NN2CCOCC2)nn(-c2ccc(Cl)cc2Cl)c1-c1ccc(I)cc1`, the half-maximal activity concentration (AC50) on Cytochrome P450 1A2 is 31.6 µM (inconclusive); at Cytochrome P450 2D6, 12.6 µM (inconclusive). With `C/C(=N\Nc1nc2ccccc2[nH]1)c1ccc(C)o1`, the half-maximal activity concentration (AC50) in [3] was 0.299 µM (active). Further, the IC50 in assay [4] is 69 µM (active). Turning to `Cc1c(Cl)cccc1Nc1nnc(S)s1`, the IC50 in [4] was 108 µM (active). `O=C(NCc1ccccc1)C(c1cccnc1)N(C(=O)c1ccccn1)c1ccc(F)cc1` (configuration not stated): the EC50 in assay [1] and in assay [2] was > 112 µM (not active) throughout. For `Cc1nc(SCc2ccc(Cl)c(Cl)c2)ncc1C(=O)O`, the results for the EC50 in [7] and in assay [8] were > 150 µM (inactive) and 0.78 µM (active), respectively. Moreover, the half-maximal activity concentration (AC50) in [3] was 0.027 µM (active). As for `CN(CCCNC(=O)C1CCC(=O)N1Cc1ccccc1Cl)c1ccccc1` (configuration not stated), the AC50 in assay [3] is 0.398 µM (active); on Cytochrome P450 2D6, 8.91 µM (inconclusive). Take `COc1cc(/C=C/C(=O)OCC(=O)Nc2cccc(F)c2)ccc1O`: in assay [4], the IC50 was 41.6 µM (active). As for `CCOC(=O)C1CCCN(C(S)=Nc2ccc(Nc3ccccc3)cc2)C1` (configuration not stated), the IC50 in assay [4] was 51 µM (active). Turning to `COc1cccc(Cn2c(=O)cnc3cncnc32)c1`, the AC50 was 25.1 µM (inconclusive) at Cytochrome P450 2C19, 20 µM (inconclusive) at Cytochrome P450 3A4 and 25.1 µM (inconclusive) at Cytochrome P450 2D6. `O=C1CN=C(Nc2ccccc2)N1Cc1cccs1`: the AC50 on Cytochrome P450 2D6 is 25.1 µM (inconclusive). With `O=C(N/N=C/c1ccc(O)c(O)c1)c1ccc(-n2cnnn2)cc1`, in [4], the IC50 is 18.6 µM (active). On to `O=C(c1ccncc1)N1CCC2(CCCN(c3ccccn3)C2)CC1`, for which the AC50 on Cytochrome P450 2D6 is 25.1 µM (inconclusive). For the molecule `COc1ccc(CCN(C)CCc2ccc(OC)c(OC)c2)cc1OC`, the AC50 was 15.8 µM (inconclusive) and 10 µM (inconclusive) at Cytochrome P450 3A4; 31.6 µM (inconclusive) and 12.6 µM (inconclusive) on Cytochrome P450 2D6. In the case of `O=C(O)CC/C=C\C[C@@H]1CO[C@H](c2ccccc2Cl)O[C@@H]1c1ccccc1O`, the AC50 on Cytochrome P450 1A2 was 39.8 µM (inconclusive); on Cytochrome P450 3A4 it was 15.8 µM (inconclusive); at Cytochrome P450 2D6, 20 µM (inconclusive). Turning to `COc1ccccc1CN1CCN(Cc2cc(OC)c(OC)cc2OC)CC1`, the IC50 in assay [4] is 73.5 µM (active).

For the molecule `CCn1c(SCc2cccc(C(=O)O)c2)nnc1-c1ccccc1`, the concentration giving a half-maximal response (EC50) in [1] and in assay [2] was > 112 µM (not active) throughout.
